# Measurements as given in PMC9057082 (RSC Advances, 2020).
# Experiment: Total antioxidant capacity
# Assay type: biochemical
# Conditions: residual hydrogen peroxide measured at 505 nm; mean ± standard deviation
compound,measurement,value
O=C1O[C@H]([C@@H](O)CO)C(O)=C1O [Ascorbic acid],Total anti-oxidant activity IC50,174.8 ± 12.3 µg/mL
